Assays:
CDK2/Cyclin E = CDK2/Cyclin E (Homo sapiens, UniProt P24941); assay: CDK2/Cyclin E biochemical phosphorylation assay (Caliper mobility shift); conditions: apparent IC50; 1.0 mM ATP or ATP Km; 1.25 nM enzyme; 25° C.; read-out: CDK2/cyclin E1 IC50
Procedure, shortened: (§1)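 Caliper electrophoretic separation of substrate and phosphopeptide gave apparent IC50s. Enzymes: CDK1/Cyclin B1 GST-tag 1.5 nM, CDK2/Cyclin E 1.25 nM; ATP 1.0 mM or at Km; 7.5 µM FL-peptide; pH 7.5 HEPES buffer, 1% DMSO; room temperature until 10–20% phosphorylated, then EDTA quench.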

CDK1/Cyclin B1, GST-tag = target: T1, CDK1/Cyclin B1, GST-tag (Homo sapiens, UniProt P06493); assay: CDK1/Cyclin B1 biochemical phosphorylation assay (Caliper mobility shift); conditions: apparent IC50; 1.0 mM ATP or ATP Km; 1.5 nM enzyme; 25° C.
T1 construct: GST
T1 sequence (P06493 whole entry): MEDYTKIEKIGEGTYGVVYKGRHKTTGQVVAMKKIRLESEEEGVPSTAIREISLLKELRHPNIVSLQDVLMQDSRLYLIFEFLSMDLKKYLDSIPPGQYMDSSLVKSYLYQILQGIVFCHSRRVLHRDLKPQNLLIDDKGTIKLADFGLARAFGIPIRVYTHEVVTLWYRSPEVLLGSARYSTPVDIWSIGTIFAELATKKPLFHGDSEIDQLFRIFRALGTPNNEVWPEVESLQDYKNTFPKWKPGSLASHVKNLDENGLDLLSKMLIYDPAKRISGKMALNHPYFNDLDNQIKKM
T1 sequence (P14635 whole entry partner): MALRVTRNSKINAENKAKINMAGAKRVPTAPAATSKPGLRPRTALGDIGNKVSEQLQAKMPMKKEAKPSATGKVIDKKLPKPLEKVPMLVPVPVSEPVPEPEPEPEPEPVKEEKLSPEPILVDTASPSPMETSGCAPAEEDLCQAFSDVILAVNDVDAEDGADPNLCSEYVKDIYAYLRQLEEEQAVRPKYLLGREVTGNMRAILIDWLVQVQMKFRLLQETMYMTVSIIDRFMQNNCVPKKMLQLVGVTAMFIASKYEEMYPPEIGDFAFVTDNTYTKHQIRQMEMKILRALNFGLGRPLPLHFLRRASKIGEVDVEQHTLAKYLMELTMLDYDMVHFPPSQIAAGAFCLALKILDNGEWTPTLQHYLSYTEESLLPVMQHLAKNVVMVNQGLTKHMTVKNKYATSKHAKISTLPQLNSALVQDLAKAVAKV
Procedure, shortened: as §1

Row | SMILES | IC50 (CDK2/Cyclin E) [nM] | IC50 (CDK1/Cyclin B1, GST-tag) [nM]
1 | FC(F)Oc1cc(Nc2cnc3cnn([C@H](C4CCOCC4)C4CC4)c3n2)n[nH]1 (single isomer, unassigned) [Example 158, (R)-1-(cyclopropyl(tetrahydro-2H-pyran-4-yl)methyl)-N-(5-(difluoromethoxy)-1H-pyrazol-3-yl)-1H-pyrazolo[3,4-b]pyrazin-6-amine or (S)-1-(cyclopropyl(tetrahydro-2H-pyran-4-yl)methyl)-N-(5-(difluoromethoxy)-1H-pyrazol-3-yl)-1H-pyrazolo[3,4-b]pyrazin-6-amine] | 30 to 100 | ≥ 500
2 | FC(F)Oc1cc(Nc2cnc3cnn(C[C@H]4C[C@@H]4F)c3n2)n[nH]1 (single isomer, unassigned) [Example 159, N-(5-(difluoromethoxy)-1H-pyrazol-3-yl)-1-(((1R,2S)-2-fluorocyclopropyl)methyl)-1H-pyrazolo[3,4-b]pyrazin-6-amine or N-(5-(difluoromethoxy)-1H-pyrazol-3-yl)-1-(((1S,2R)-2-fluorocyclopropyl)methyl)-1H-pyrazolo[3,4-b]pyrazin-6-amine] | ≤ 10 | ≥ 500
3 | FC(F)Oc1cc(Nc2cnc3cnn(C[C@H]4C[C@@H]4F)c3n2)n[nH]1 (single isomer, unassigned) [Example 160, N-(5-(difluoromethoxy)-1H-pyrazol-3-yl)-1-(((1S,2R)-2-fluorocyclopropyl)methyl)-1H-pyrazolo[3,4-b]pyrazin-6-amine or N-(5-(difluoromethoxy)-1H-pyrazol-3-yl)-1-(((1R,2S)-2-fluorocyclopropyl)methyl)-1H-pyrazolo[3,4-b]pyrazin-6-amine] | 20 to 30 | ≥ 500
4 | FC(F)Oc1cc(Nc2cnc3cnn([C@H](c4ccccc4)C4COC4)c3n2)n[nH]1 (single isomer, unassigned) [Example 161, (S)-N-(5-(difluoromethoxy)-1H-pyrazol-3-yl)-1-(oxetan-3-yl(phenyl)methyl)-1H-pyrazolo[3,4-b]pyrazin-6-amine or (R)-N-(5-(difluoromethoxy)-1H-pyrazol-3-yl)-1-(oxetan-3-yl(phenyl)methyl)-1H-pyrazolo[3,4-b]pyrazin-6-amine] | 30 to 100 | ≥ 500
5 | FC(F)Oc1cc(Nc2cnc3cnn([C@H](c4ccccc4)C4COC4)c3n2)n[nH]1 (single isomer, unassigned) [Example 162, (R)-N-(5-(difluoromethoxy)-1H-pyrazol-3-yl)-1-(oxetan-3-yl(phenyl)methyl)-1H-pyrazolo[3,4-b]pyrazin-6-amine or (S)-N-(5-(difluoromethoxy)-1H-pyrazol-3-yl)-1-(oxetan-3-yl(phenyl)methyl)-1H-pyrazolo[3,4-b]pyrazin-6-amine] | > 100 | ≥ 500
6 | FC(F)Oc1cc(Nc2cnc3cnn(C[C@@H]4CC4(F)F)c3n2)n[nH]1 (single isomer, unassigned) [Example 163, (S)-1-((2,2-difluorocyclopropyl)methyl)-N-(5-(difluoromethoxy)-1H-pyrazol-3-yl)-1H-pyrazolo[3,4-b]pyrazin-6-amine or (R)-1-((2,2-difluorocyclopropyl)methyl)-N-(5-(difluoromethoxy)-1H-pyrazol-3-yl)-1H-pyrazolo[3,4-b]pyrazin-6-amine] | ≤ 10 | ≥ 500
7 | FC(F)Oc1cc(Nc2cnc3cnn(C[C@@H]4CC4(F)F)c3n2)n[nH]1 (single isomer, unassigned) [Example 164, (R)-1-((2,2-difluorocyclopropyl)methyl)-N-(5-(difluoromethoxy)-1H-pyrazol-3-yl)-1H-pyrazolo[3,4-b]pyrazin-6-amine or (S)-1-((2,2-difluorocyclopropyl)methyl)-N-(5-(difluoromethoxy)-1H-pyrazol-3-yl)-1H-pyrazolo[3,4-b]pyrazin-6-amine] | 10 to 20 | ≥ 500
8 | C[C@]1(Cn2ncc3ncc(Nc4cc(OC(F)F)[nH]n4)nc32)CCOC1 (single isomer, unassigned) [Example 165, (R)-N-(5-(difluoromethoxy)-1H-pyrazol-3-yl)-1-((3-methyltetrahydrofuran-3-yl)methyl)-1H-pyrazolo[3,4-b]pyrazin-6-amine or (S)-N-(5-(difluoromethoxy)-1H-pyrazol-3-yl)-1-((3-methyltetrahydrofuran-3-yl)methyl)-1H-pyrazolo[3,4-b]pyrazin-6-amine] | 30 to 100 | ≥ 500
9 | C[C@]1(Cn2ncc3ncc(Nc4cc(OC(F)F)[nH]n4)nc32)CCOC1 (single isomer, unassigned) [Example 166, (S)-N-(5-(difluoromethoxy)-1H-pyrazol-3-yl)-1-((3-methyltetrahydrofuran-3-yl)methyl)-1H-pyrazolo[3,4-b]pyrazin-6-amine or (R)-N-(5-(difluoromethoxy)-1H-pyrazol-3-yl)-1-((3-methyltetrahydrofuran-3-yl)methyl)-1H-pyrazolo[3,4-b]pyrazin-6-amine] | ≤ 10 | 100 to 500
10 | FC(F)Oc1cc(Nc2cnc3cnn(C[C@@]4(F)CCOC4)c3n2)n[nH]1 (single isomer, unassigned) [Example 167, (S)-N-(5-(difluoromethoxy)-1H-pyrazol-3-yl)-1-((3-fluorotetrahydrofuran-3-yl)methyl)-1H-pyrazolo[3,4-b]pyrazin-6-amine or (R)-N-(5-(difluoromethoxy)-1H-pyrazol-3-yl)-1-((3-fluorotetrahydrofuran-3-yl)methyl)-1H-pyrazolo[3,4-b]pyrazin-6-amine] | 20 to 30 | ≥ 500
11 | FC(F)Oc1cc(Nc2cnc3cnn(C[C@@]4(F)CCOC4)c3n2)n[nH]1 (single isomer, unassigned) [Example 168, (R)-N-(5-(difluoromethoxy)-1H-pyrazol-3-yl)-1-((3-fluorotetrahydrofuran-3-yl)methyl)-1H-pyrazolo[3,4-b]pyrazin-6-amine or (S)-N-(5-(difluoromethoxy)-1H-pyrazol-3-yl)-1-((3-fluorotetrahydrofuran-3-yl)methyl)-1H-pyrazolo[3,4-b]pyrazin-6-amine] | 30 to 100 | ≥ 500
12 | N#C[C@@]1(Cn2ncc3ncc(Nc4cc(OC(F)F)[nH]n4)nc32)CCOC1 (single isomer, unassigned) [Example 169, (S)-3-((6-((5-(difluoromethoxy)-1H-pyrazol-3-yl)amino)-1H-pyrazolo[3,4-b]pyrazin-1-yl)methyl)tetrahydrofuran-3-carbonitrile or (R)-3-((6-((5-(difluoromethoxy)-1H-pyrazol-3-yl)amino)-1H-pyrazolo[3,4-b]pyrazin-1-yl)methyl)tetrahydrofuran-3-carbonitrile] | 20 to 30 | ≥ 500
13 | N#C[C@@]1(Cn2ncc3ncc(Nc4cc(OC(F)F)[nH]n4)nc32)CCOC1 (single isomer, unassigned) [Example 170, (R)-3-((6-((5-(difluoromethoxy)-1H-pyrazol-3-yl)amino)-1H-pyrazolo[3,4-b]pyrazin-1-yl)methyl)tetrahydrofuran-3-carbonitrile or (S)-3-((6-((5-(difluoromethoxy)-1H-pyrazol-3-yl)amino)-1H-pyrazolo[3,4-b]pyrazin-1-yl)methyl)tetrahydrofuran-3-carbonitrile] | > 100 | ≥ 500
14 | O[C@H]1CC[C@@H](Cn2ncc3ncc(Nc4cc(OC(F)F)[nH]n4)nc32)CC1 (single isomer, unassigned) [Example 171, (1s,4s)-4-((6-((5-(difluoromethoxy)-1H-pyrazol-3-yl)amino)-1H-pyrazolo[3,4-b]pyrazin-1-yl)methyl)cyclohexan-1-ol or (1r,4r)-4-((6-((5-(difluoromethoxy)-1H-pyrazol-3-yl)amino)-1H-pyrazolo[3,4-b]pyrazin-1-yl)methyl)cyclohexan-1-ol] | 10 to 20 | ≥ 500
15 | O[C@H]1CC[C@@H](Cn2ncc3ncc(Nc4cc(OC(F)F)[nH]n4)nc32)CC1 (single isomer, unassigned) [Example 172, (1r,4r)-4-((6-((5-(difluoromethoxy)-1H-pyrazol-3-yl)amino)-1H-pyrazolo[3,4-b]pyrazin-1-yl)methyl)cyclohexan-1-ol or (1s,4s)-4-((6-((5-(difluoromethoxy)-1H-pyrazol-3-yl)amino)-1H-pyrazolo[3,4-b]pyrazin-1-yl)methyl)cyclohexan-1-ol] | 10 to 20 | ≥ 500
16 | C[C@@H](c1cnccc1F)n1ncc2ncc(Nc3cc(OC(F)F)[nH]n3)nc21 (single isomer, unassigned) [Example 173, (S)-N-(5-(difluoromethoxy)-1H-pyrazol-3-yl)-1-(1-(4-fluoropyridin-3-yl)ethyl)-1H-pyrazolo[3,4-b]pyrazin-6-amine or (R)-N-(5-(difluoromethoxy)-1H-pyrazol-3-yl)-1-(1-(4-fluoropyridin-3-yl)ethyl)-1H-pyrazolo[3,4-b]pyrazin-6-amine] | 20 to 30 | ≥ 500
17 | C[C@@H](c1cnccc1F)n1ncc2ncc(Nc3cc(OC(F)F)[nH]n3)nc21 (single isomer, unassigned) [Example 174, (R)-N-(5-(difluoromethoxy)-1H-pyrazol-3-yl)-1-(1-(4-fluoropyridin-3-yl)ethyl)-1H-pyrazolo[3,4-b]pyrazin-6-amine or (S)-N-(5-(difluoromethoxy)-1H-pyrazol-3-yl)-1-(1-(4-fluoropyridin-3-yl)ethyl)-1H-pyrazolo[3,4-b]pyrazin-6-amine] | > 100 | ≥ 500
